From the supplement of paper PMC13380429

Columns and labels:
Conditions in all cases: 72 h
Caco-2 [1] = test: cell viability relative to DMSO; higher = less toxic
Calu-3 [2] = test: as above
HepG2 [3] = test: as above
U2OS [4] = test: as above
Vero E6 [5] = test: as above
Caco-2 [6] = test: relative viability EC50 (midpoint between 100% and the lowest measured viability); higher = less toxic
Calu-3 [7] = test: as above
HepG2 [8] = test: as above
U2OS [9] = test: as above
Vero E6 [10] = test: as above
Caco-2 [11] = test: drug sensitivity score (DSS) for viability; higher = more toxic; extreme values may be limits of the assay
Calu-3 [12] = test: as above
HepG2 [13] = test: as above
U2OS [14] = test: as above
Vero E6 [15] = test: as above

Row | SMILES | cell viability (Caco-2 [1]; 1 nM) | cell viability (Caco-2 [1]; 10 nM) | cell viability (Caco-2 [1]; 100 nM) | cell viability (Caco-2 [1]; 1000 nM) | cell viability (Caco-2 [1]; 10000 nM) | cell viability (Calu-3 [2]; 1 nM) | cell viability (Calu-3 [2]; 10 nM) | cell viability (Calu-3 [2]; 100 nM) | cell viability (Calu-3 [2]; 1000 nM) | cell viability (Calu-3 [2]; 10000 nM) | cell viability (HepG2 [3]; 1 nM) | cell viability (HepG2 [3]; 10 nM) | cell viability (HepG2 [3]; 100 nM) | cell viability (HepG2 [3]; 1000 nM) | cell viability (HepG2 [3]; 10000 nM) | cell viability (U2OS [4]; 1 nM) | cell viability (U2OS [4]; 10 nM) | cell viability (U2OS [4]; 100 nM) | cell viability (U2OS [4]; 1000 nM) | cell viability (U2OS [4]; 10000 nM) | cell viability (Vero E6 [5]; 1 nM) | cell viability (Vero E6 [5]; 10 nM) | cell viability (Vero E6 [5]; 100 nM) | cell viability (Vero E6 [5]; 1000 nM) | cell viability (Vero E6 [5]; 10000 nM) | relative viability EC50 (Caco-2 [6]) | relative viability EC50 (Calu-3 [7]) | relative viability EC50 (HepG2 [8]) | relative viability EC50 (U2OS [9]) | relative viability EC50 (Vero E6 [10]) | drug sensitivity score (Caco-2 [11]) | drug sensitivity score (Calu-3 [12]) | drug sensitivity score (HepG2 [13]) | drug sensitivity score (U2OS [14]) | drug sensitivity score (Vero E6 [15])
1 | CCCN(C/C=C/I)C1CCc2cccc(O)c2C1 (stereo not given) [8-hydroxy-PIPAT] | 107% | 95.3% | 100% | 93.8% | 101% | 101% | 101% | 112% | 103% | 99.5% | 101% | 105% | 111% | 104% | 83.4% | 103% | 100% | 102% | 97.6% | 97.8% | 97.7% | 99.7% | 100% | 99.3% | 92.9% | > 10 µM | > 10 µM | > 10 µM | > 10 µM | > 10 µM | 0 | 0 | 0.2 | 0 | 0
2 | C=CC(=O)N1CCC[C@@H](n2nc(-c3ccc(Oc4ccccc4)cc3)c3c(N)ncnc32)C1 [ibrutinib] | 103% | 97.3% | 101% | 96.8% | 101% | 100% | 92% | 94.5% | 98.3% | 103% | 97% | 99.1% | 104% | 97.2% | 95.3% | 101% | 100% | 98.6% | 97.6% | 100% | 99.4% | 95.5% | 101% | 98.7% | 92.1% | > 10 µM | > 10 µM | > 10 µM | > 10 µM | > 10 µM | 0 | 0 | 0 | 0 | 0
3 | CSc1ccc([C@H]2CN3CCC[C@H]3c3ccccc32)cc1 (racemic) [McN-5652-(+/-)] | 92.2% | 100% | 96.1% | 103% | 98.7% | 102% | 101% | 106% | 84.9% | 105% | 102% | 89.9% | 98.5% | 90.3% | 105% | 97.8% | 105% | 96.8% | 105% | 102% | 99.6% | 102% | 102% | 96.3% | 104% | > 10 µM | > 10 µM | > 10 µM | > 10 µM | > 10 µM | 0 | 0 | 0 | 0 | 0
4 | CN1CCc2c(c3ccccc3n2Cc2ccc(C(=O)NO)cc2)C1 [tubastatin-A] | 97.2% | 91.2% | 99% | 93.3% | 88.9% | 108% | 93.5% | 99.6% | 89.9% | 81.5% | 107% | 104% | 90.1% | 90.9% | 36.9% | 102% | 97% | 99.3% | 89.2% | 84% | 98.7% | 102% | 101% | 102% | 78.3% | > 10 µM | > 10 µM | 2.02 µM | > 10 µM | > 10 µM | 0 | 1.2 | 5 | 1 | 0.6
5 | O=C(O)C1=CO[C@@H](O[C@@H]2O[C@H](CO)[C@@H](O)[C@H](O)[C@H]2O)[C@@H]2C(CO)=CC[C@H]12 [Geniposidic acid] | 117% | 101% | 106% | 103% | 96.3% | 98.7% | 103% | 95.4% | 113% | 108% | 110% | 105% | 102% | 111% | 94.6% | 102% | 96.2% | 101% | 94.5% | 101% | 100% | 107% | 97.5% | 104% | 101% | > 10 µM | > 10 µM | > 10 µM | > 10 µM | > 10 µM | 0 | 0 | 0 | 0 | 0
6 | Cc1nc(C)c(C)nc1C [chuanxiongzine] | 110% | 105% | 95.7% | 112% | 105% | 105% | 106% | 89.9% | 101% | 84.8% | 105% | 88.9% | 97.1% | 92% | 97.3% | 98.5% | 102% | 98.6% | 101% | 95.7% | 104% | 97.1% | 104% | 104% | 105% | > 10 µM | > 10 µM | > 10 µM | > 10 µM | > 10 µM | 0 | 0.2 | 0 | 0 | 0
7 | C1N2CN3CN1CN(C2)C3 [methenamine] | 94.6% | 99.8% | 96.5% | 104% | 106% | 97.1% | 96.4% | 97.2% | 102% | 93.5% | 98.4% | 96.2% | 102% | 105% | 106% | 89.9% | 97.5% | 100% | 98.2% | 99.7% | 98.7% | 92.3% | 93.1% | 94.6% | 102% | > 10 µM | > 10 µM | > 10 µM | > 10 µM | > 10 µM | 0 | 0 | 0 | 0 | 0
8 | CC(=O)Nc1ccc(OC[C@](C)(O)C(=O)Nc2ccc([N+](=O)[O-])c(C(F)(F)F)c2)cc1 [andarine] | 97.4% | 98.6% | 87.3% | 93.5% | 99.2% | 93.1% | 98.1% | 90.2% | 105% | 90.3% | 105% | 98.8% | 100% | 103% | 99% | 97.9% | 102% | 94.8% | 98% | 93.9% | 101% | 104% | 101% | 96.3% | 100% | > 10 µM | > 10 µM | > 10 µM | > 10 µM | > 10 µM | 0 | 0 | 0 | 0 | 0
9 | CCC(=O)OCN1C(=O)C=CC1=O [MIRA-1] | 90.6% | 97.5% | 87.8% | 94.7% | 112% | 90.6% | 108% | 104% | 101% | 98.9% | 104% | 95.9% | 106% | 106% | 103% | 99.3% | 99.4% | 102% | 102% | 105% | 95.8% | 91.8% | 99.8% | 92% | 107% | > 10 µM | > 10 µM | > 10 µM | > 10 µM | > 10 µM | 0 | 0 | 0 | 0 | 0
10 | Nc1ccc([As](=O)(O)O)cc1 [arsanilic-acid] | 108% | 81.2% | 86.6% | 81.9% | 95.8% | 114% | 87.2% | 101% | 98.1% | 97.7% | 110% | 103% | 98.2% | 99.3% | 104% | 107% | 107% | 104% | 97.5% | 103% | 99.5% | 98.8% | 95.4% | 97.1% | 96.4% | > 10 µM | > 10 µM | > 10 µM | > 10 µM | > 10 µM | 6 | 0 | 0 | 0 | 0
11 | COc1ccccc1Oc1c(NS(=O)(=O)c2ccc(C)cn2)nc(-c2ccncc2)nc1OC [SPP301] | 93.2% | 100% | 105% | 106% | 84.4% | 85.6% | 96.1% | 93.4% | 99% | 98% | 106% | 92.6% | 93.2% | 95.1% | 101% | 99.9% | 102% | 98.8% | 100% | 95.4% | 102% | 102% | 105% | 94.3% | 102% | > 10 µM | > 10 µM | > 10 µM | > 10 µM | > 10 µM | 0.1 | 0 | 0 | 0 | 0
12 | Clc1ccc(C2=CCC[C@H]3CC[C@@H]2N3)cn1 [UB-165] | 92.2% | 97.7% | 96.8% | 93% | 102% | 108% | 107% | 91.3% | 93.2% | 100% | 98.2% | 97% | 93.1% | 95.5% | 102% | 101% | 107% | 97.1% | 97.5% | 102% | 101% | 102% | 95.6% | 100% | 103% | > 10 µM | > 10 µM | > 10 µM | > 10 µM | > 10 µM | 0 | 0 | 0 | 0 | 0
13 | OC[C@@H](O)[C@@H](O)CO [erythritol] | 94.1% | 101% | 97.9% | 91% | 100% | 102% | 97.9% | 112% | 97% | 98.7% | 108% | 116% | 100% | 97.1% | 98.9% | 94.8% | 98.1% | 97.8% | 99.6% | 97.7% | 105% | 102% | 101% | 102% | 98.1% | > 10 µM | > 10 µM | > 10 µM | > 10 µM | > 10 µM | 0 | 0 | 0 | 0 | 0
14 | CO[C@@]1(NC(=O)C2SC(=C(C(N)=O)C(=O)O)S2)C(=O)N2C(C(=O)O)=C(CSc3nnnn3C)CS[C@@H]21 (stereo not given in full) [cefotetan] | 92.4% | 95.3% | 93.6% | 95.9% | 101% | 109% | 94.1% | 108% | 105% | 103% | 108% | 89.7% | 99.1% | 100% | 103% | 98.3% | 99.6% | 98.5% | 99.8% | 96.1% | 105% | 104% | 103% | 98.2% | 99.9% | > 10 µM | > 10 µM | > 10 µM | > 10 µM | > 10 µM | 0 | 0 | 0 | 0 | 0
